Assay results as given in ChEMBL document CHEMBL1201862, “PubChem BioAssay data set” (2004).
Counter-ions that a name gives are not always drawn.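 Following 48 hours of exposure in 96-well plates, responses at five concentrations were used to interpolate endpoints linearly. Here, GI50 denotes the concentration required for 50% inhibition of growth.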 Activity calls are given as the source filed them. Cut-off read from the data, not from the text of the source: active = GI50 up to about 1.1 µM and inactive = higher.

What was measured:
Test in all cases: inhibition of tumour cell growth, NCI panel, 48 h
NCI-H23 = test system: NCI-H23
HL-60 = test system: HL-60
NCI-H460 = test system: NCI-H460
UACC-62 = test system: UACC-62
UACC-257 = test system: UACC-257
SNB-19 = test system: SNB-19
IGROV-1 = test system: IGROV-1
MDA-MB-435 = test system: MDA-MB-435
SK-MEL-5 = test system: SK-MEL-5
SF-268 = test system: SF-268
MCF7 = test system: MCF7
SK-OV-3 = test system: SK-OV-3
A549 = test system: A549
Malme-3M = test system: Malme-3M
HCC 2998 = test system: HCC 2998
NCI/ADR-RES = test system: NCI/ADR-RES
SK-MEL-28 = test system: SK-MEL-28
NCI-H522 = test system: NCI-H522
SK-MEL-2 = test system: SK-MEL-2
ACHN = test system: ACHN

Structure (SMILES) | GI50 (NCI-H23) | GI50 (HL-60) | GI50 (NCI-H460) | GI50 (UACC-62) | GI50 (UACC-257) | GI50 (SNB-19) | GI50 (IGROV-1) | GI50 (MDA-MB-435) | GI50 (SK-MEL-5) | GI50 (SF-268) | GI50 (MCF7) | GI50 (SK-OV-3) | GI50 (A549) | GI50 (Malme-3M) | GI50 (HCC 2998) | GI50 (NCI/ADR-RES) | GI50 (SK-MEL-28) | GI50 (NCI-H522) | GI50 (SK-MEL-2) | GI50 (ACHN)
Clc1ccc(OCc2nnc3sc(-c4ccc(-c5ccc(Cl)cc5Cl)o4)nn23)c(Cl)c1 | 21.6 µM (inactive) | 28.2 µM (inactive) | 20.4 µM (inactive) | 25.7 µM (inactive) | 18.4 µM (inactive) | 22.1 µM (inactive) | 17.8 µM (inactive) | 32.8 µM (inactive) | 20.1 µM (inactive) | 15.6 µM (inactive) | 31.6 µM (inactive) | 19.1 µM (inactive) | 21.6 µM (inactive) | 18.8 µM (inactive) | 17.9 µM (inactive) | 20 µM (inactive) | 23.8 µM (inactive) | 17.8 µM (inactive) | 16.3 µM (inactive) | 20 µM (inactive)
CCOC(=O)/C(SC#N)=C(/N)N1CCCC1 | > 100 µM (inactive) | > 100 µM (inactive) | > 100 µM (inactive) | > 100 µM (inactive) | > 100 µM (inactive) | > 100 µM (inactive) | > 100 µM (inactive) | > 100 µM (inactive) | > 100 µM (inactive) | > 100 µM (inactive) | > 100 µM (inactive) | > 100 µM (inactive) | > 100 µM (inactive) | > 100 µM (inactive) | > 100 µM (inactive) | > 100 µM (inactive) | > 100 µM (inactive) | > 100 µM (inactive) | > 100 µM (inactive) | > 100 µM (inactive)
COc1ccc2c(c1)Cc1c(NCCN(C)C)ccc(C(=O)NCCCN(C)CCCNC(=O)c3ccc(NCCN(C)C)c4c3Nc3ccc(OC)cc3C4)c1N2 | < 0.0212 µM (active) | 0.0358 µM (active) | < 0.01 µM (active) | < 0.0228 µM (active) | 0.0303 µM (active) | < 0.01 µM (active) | < 0.01 µM (active) | < 0.01 µM (active) | 0.0299 µM (active) | < 0.01 µM (active) | < 0.01 µM (active) | < 0.01 µM (active) | < 0.01 µM (active) | < 0.01 µM (active) | < 0.01 µM (active) | 4.2 µM (inactive) | 0.142 µM (active) | < 0.01 µM (active) | < 0.01 µM (active) | 0.0343 µM (active)
OC[P+](CO)(CO)C12CC3CC(CC(C3)C1)C2 | > 88.3 µM (inactive) | 10.3 µM (inactive) | 76.4 µM (inactive) | > 100 µM (inactive) | > 100 µM (inactive) | 87.1 µM (inactive) | 4.85 µM (inactive) | > 100 µM (inactive) | > 100 µM (inactive) | > 100 µM (inactive) | > 100 µM (inactive) | > 100 µM (inactive) | > 100 µM (inactive) | > 100 µM (inactive) | > 100 µM (inactive) | > 100 µM (inactive) | > 100 µM (inactive) | > 70.8 µM (inactive) | > 100 µM (inactive) | > 100 µM (inactive)
Cc1c(S(=O)(=O)c2ccccc2)c(N)n(CCN(C)C)c1C | > 100 µM (inactive) | > 100 µM (inactive) | > 100 µM (inactive) | > 100 µM (inactive) | > 100 µM (inactive) | > 100 µM (inactive) | > 100 µM (inactive) | > 100 µM (inactive) | > 100 µM (inactive) | > 100 µM (inactive) | > 100 µM (inactive) | > 100 µM (inactive) | > 100 µM (inactive) | > 100 µM (inactive) | 75 µM (inactive) | > 100 µM (inactive) | > 100 µM (inactive) | > 100 µM (inactive) | > 100 µM (inactive) | > 100 µM (inactive)
COc1ccc(C2=C(N)c3c(Cl)cccc3C2=O)cc1 | 32.6 µM (inactive) | > 100 µM (inactive) | > 100 µM (inactive) | > 100 µM (inactive) | > 100 µM (inactive) | 22 µM (inactive) | > 100 µM (inactive) | > 100 µM (inactive) | > 100 µM (inactive) | > 100 µM (inactive) | > 100 µM (inactive) | 55.3 µM (inactive) | > 100 µM (inactive) | > 100 µM (inactive) | > 100 µM (inactive) | 50 µM (inactive) | > 100 µM (inactive) | > 100 µM (inactive) | > 100 µM (inactive) | > 100 µM (inactive)
CS(=O)(=O)OCCCNCCCOS(C)(=O)=O | 904 µM (inactive) | 201 µM (inactive) | 156 µM (inactive) | 393 µM (inactive) | 1850 µM (inactive) | 1270 µM (inactive) | 2110 µM (inactive) | 2340 µM (inactive) | 1550 µM (inactive) | 879 µM (inactive) | 679 µM (inactive) | 1550 µM (inactive) | 741 µM (inactive) | 1590 µM (inactive) | 1280 µM (inactive) | 1600 µM (inactive) | 2440 µM (inactive) | 1850 µM (inactive) | 1940 µM (inactive) | 392 µM (inactive)
CCCCOC(=O)CC(CC(=O)OCCCC)(OC(C)=O)C(=O)OCCCC [ACETYLTRIBUTYL CITRATE] | 60.8 µM (inactive) | 27.8 µM (inactive) | 162 µM (inactive) | 117 µM (inactive) | 47.9 µM (inactive) | > 200 µM (inactive) | > 200 µM (inactive) | > 178 µM (inactive) | 16.1 µM (inactive) | > 200 µM (inactive) | 39.1 µM (inactive) | > 200 µM (inactive) | 96.8 µM (inactive) | 197 µM (inactive) | > 200 µM (inactive) | 91.6 µM (inactive) | > 157 µM (inactive) | 47.5 µM (inactive) | > 200 µM (inactive) | > 200 µM (inactive)
Cn1c(=O)c2nc3c(=O)n(C)c(=O)n(CC(N)=O)c3nc2n(C)c1=O | > 100 µM (inactive) | > 100 µM (inactive) | > 100 µM (inactive) | > 100 µM (inactive) | > 100 µM (inactive) | > 100 µM (inactive) | > 100 µM (inactive) | > 100 µM (inactive) | > 100 µM (inactive) | > 100 µM (inactive) | > 100 µM (inactive) | > 100 µM (inactive) |  | > 100 µM (inactive) | > 100 µM (inactive) | > 100 µM (inactive) | > 100 µM (inactive) | > 100 µM (inactive) | > 100 µM (inactive) | > 100 µM (inactive)
CN(C)N1C(=O)S/C(=C\c2ccc([N+](=O)[O-])cc2)C1=O | > 100 µM (inactive) | 34 µM (inactive) | > 100 µM (inactive) | > 100 µM (inactive) | > 100 µM (inactive) |  | > 100 µM (inactive) | > 100 µM (inactive) | > 100 µM (inactive) | > 100 µM (inactive) | > 100 µM (inactive) | > 100 µM (inactive) | > 100 µM (inactive) | > 100 µM (inactive) | > 100 µM (inactive) | > 100 µM (inactive) | > 100 µM (inactive) | > 100 µM (inactive) | > 100 µM (inactive) | > 100 µM (inactive)
